From patent US10899788B2, “Cyclic phosphate substituted nucleoside compounds and methods of use thereof for the treatment of viral diseases” (MERCK SHARP & DOHME CORP., priority 2016, dated 2021)

Experiments:
[1] = system: HCV replicon cells (1b-Con1); experiment: Replicon activity assay (cell-based anti-HCV activity); conditions: Hepatitis C virus, 72 h, three days post-dosing, replicon RNA level by real-time RT-PCR, read-out: EC50 (1b) Range
Description: (§1) To measure cell-based anti-HCV activity of the compounds of the present invention, replicon cells (1b-Con1) are seeded at 5000 cells/well in 96-well plates one day prior to treatment with a compound of the invention. Various concentrations of a test compound of the invention in DMSO are then added to the replicon cells, with the final concentration of DMSO at 0.5% and fetal bovine serum at 10% in the assay media. Cells are harvested three days post-dosing, and the replicon RNA level is determined using real-time RT-PCR (Taqman assay) with GAPDH RNA as endogenous control. EC50 values are calculated from experiments with 10 serial twofold dilutions of the inhibitor in triplicate. To measure cytotoxicity in replicon cells of an inhibitor, an MTS assay is performed according to the manufacturer's protocol for CellTiter 96 Aqueous One Solution Cell Proliferation Assay (Promega, Cat #G3580) three days post dosing on cells treated identically as in replicon activity assays. […] Cytotoxicity in other types of cells may be measured using the same MTS protocol.
(§2) Data were obtained using this method for selected compounds of the present invention, and are set forth below in Table 2.

[2] = Cytotoxicity assay in replicon cells (MTS); assay type: cell-based; conditions: HCV replicon cells (1b-Con1), three days post dosing, head prints EDU, method MTS, read-out: CC50 (EDU) Range
Description: as §1, §2

C#C[C@]1(C)[C@@H]2OP(=O)(OCCCC(=O)OC3CCCC3)OC[C@H]2O[C@H]1n1ccc(=O)[nH]c1=O (stereo partly drawn) [7A or 7B]
EC50 [1]: ≤ 0.25 µM

CCOC(=O)CCCCOP1(=O)OC[C@H]2O[C@@H](n3ccc(=O)[nH]c3=O)[C@](C)(N)[C@@H]2O1 (stereo partly drawn) [21A or 21B]
EC50 [1]: > 10 µM
CC50 at 3 days [2]: > 50 µM

CC(C)OC(=O)CCCOP1(=O)OC[C@H]2O[C@@H](n3ccc(=O)[nH]c3=O)[C@](C)(C#N)[C@@H]2O1 (stereo partly drawn) [Compound 1A]
EC50 [1]: 1 to 10 µM
CC50 at 3 days [2]: > 50 µM

CC(C)OC(=O)CCCO[P@]1(=O)OC[C@H]2O[C@@H](n3ccc(=O)[nH]c3=O)[C@](C)(C#N)[C@@H]2O1 [Compound 1B]
EC50 [1]: 0.25 to 1 µM
CC50 at 3 days [2]: > 50 µM

CCOc1nc(N)nc2c1ncn2[C@@H]1O[C@@H]2CO[P@](=O)(OCCCC(=O)OC(C)C)O[C@H]2[C@@]1(C)N [Compound 3A]
EC50 [1]: > 10 µM
CC50 at 3 days [2]: > 50 µM

CCOc1nc(N)nc2c1ncn2[C@@H]1O[C@@H]2CO[P@@](=O)(OCCCC(=O)OC(C)C)O[C@H]2[C@@]1(C)N [Compound 3B]
EC50 [1]: 1 to 10 µM
CC50 at 3 days [2]: > 50 µM

CCCCOC(=O)CCCO[P@@]1(=O)OC[C@H]2O[C@@H](n3ccc(=O)[nH]c3=O)[C@](C)(N)[C@@H]2O1 [Compound 4A]
EC50 [1]: > 10 µM
CC50 at 3 days [2]: > 50 µM

CCCCOC(=O)CCCO[P@]1(=O)OC[C@H]2O[C@@H](n3ccc(=O)[nH]c3=O)[C@](C)(N)[C@@H]2O1 [Compound 4B]
EC50 [1]: 1 to 10 µM
CC50 at 3 days [2]: > 50 µM

C[C@@]1(N)[C@@H]2O[P@@](=O)(OCCCC(=O)OC3CCCC3)OC[C@H]2O[C@H]1n1ccc(=O)[nH]c1=O [Compound 5A]
EC50 [1]: > 10 µM
CC50 at 3 days [2]: > 50 µM

C[C@@]1(N)[C@@H]2O[P@](=O)(OCCCC(=O)OC3CCCC3)OC[C@H]2O[C@H]1n1ccc(=O)[nH]c1=O [Compound 5B]
EC50 [1]: > 10 µM
CC50 at 3 days [2]: > 50 µM

C[C@@]1(Cl)[C@@H]2O[P@@](=O)(OCCCC(=O)OC3CCCC3)OC[C@H]2O[C@H]1n1ccc(N)nc1=O [Compound 6A]
EC50 [1]: > 10 µM
CC50 at 3 days [2]: > 50 µM

C[C@@]1(Cl)[C@@H]2O[P@](=O)(OCCCC(=O)OC3CCCC3)OC[C@H]2O[C@H]1n1ccc(N)nc1=O [Compound 6B]
EC50 [1]: ≤ 0.25 µM
CC50 at 3 days [2]: > 50 µM

CC(C)OC(=O)CCCO[P@@]1(=O)OC[C@H]2O[C@@H](n3ccc(N)nc3=O)[C@](C)(Cl)[C@@H]2O1 [Compound 8A]
EC50 [1]: 1 to 10 µM
CC50 at 3 days [2]: > 50 µM

CC(C)OC(=O)CCCO[P@]1(=O)OC[C@H]2O[C@@H](n3ccc(N)nc3=O)[C@](C)(Cl)[C@@H]2O1 [Compound 8B]
EC50 [1]: 0.25 to 1 µM
CC50 at 3 days [2]: > 50 µM

CCOc1nc(N)nc2c1ncn2[C@@H]1O[C@@H]2CO[P@](=O)(OCCCC(=O)OC(C)C)O[C@H]2[C@@]1(C)Cl [Compound 9A]
EC50 [1]: > 10 µM
CC50 at 3 days [2]: > 50 µM

CCOc1nc(N)nc2c1ncn2[C@@H]1O[C@@H]2CO[P@@](=O)(OCCCC(=O)OC(C)C)O[C@H]2[C@@]1(C)Cl [Compound 9B]
EC50 [1]: ≤ 0.25 µM
CC50 at 3 days [2]: > 50 µM

CC(C)OC(=O)CCCO[P@@]1(=O)OC[C@H]2O[C@@H](n3ccc(N)nc3=O)[C@](C)(N)[C@@H]2O1 [Compound 10A]
EC50 [1]: > 10 µM
CC50 at 3 days [2]: > 50 µM

CC(C)OC(=O)CCCO[P@]1(=O)OC[C@H]2O[C@@H](n3ccc(N)nc3=O)[C@](C)(N)[C@@H]2O1 [Compound 10B]
EC50 [1]: > 10 µM
CC50 at 3 days [2]: > 50 µM

C#C[C@]1(C)[C@@H]2O[P@@](=O)(OCCCC(=O)OC(C)C)OC[C@H]2O[C@H]1n1ccc(=O)[nH]c1=O [Compound 11A]
EC50 [1]: 1 to 10 µM
CC50 at 3 days [2]: > 50 µM

C#C[C@]1(C)[C@@H]2O[P@](=O)(OCCCC(=O)OC(C)C)OC[C@H]2O[C@H]1n1ccc(=O)[nH]c1=O [Compound 11B]
EC50 [1]: 0.25 to 1 µM
CC50 at 3 days [2]: > 50 µM

CC(C)OC(=O)CCCO[P@@]1(=O)OC[C@H]2O[C@@H](n3ccc(=O)[nH]c3=O)[C@](C)(N)[C@@H]2O1 [Compound 12A]
EC50 [1]: > 10 µM
CC50 at 3 days [2]: > 50 µM

CC(C)OC(=O)CCCO[P@]1(=O)OC[C@H]2O[C@@H](n3ccc(=O)[nH]c3=O)[C@](C)(N)[C@@H]2O1 [Compound 12B]
EC50 [1]: > 10 µM
CC50 at 3 days [2]: > 50 µM

C#C[C@@]1(O)[C@@H]2O[P@@](=O)(OCCCC(=O)OC(C)C)OC[C@H]2O[C@H]1n1ccc(=O)[nH]c1=O [Compound 13A]
EC50 [1]: > 10 µM
CC50 at 3 days [2]: > 50 µM

C#C[C@@]1(O)[C@@H]2O[P@](=O)(OCCCC(=O)OC(C)C)OC[C@H]2O[C@H]1n1ccc(=O)[nH]c1=O [Compound 13B]
EC50 [1]: 1 to 10 µM
CC50 at 3 days [2]: > 50 µM

CC(C)OC(=O)CCCCO[P@@]1(=O)OC[C@H]2O[C@@H](n3ccc(=O)[nH]c3=O)[C@](C)(N)[C@@H]2O1 [Compound 14A]
EC50 [1]: > 10 µM
CC50 at 3 days [2]: > 50 µM

CC(C)OC(=O)CCCCO[P@]1(=O)OC[C@H]2O[C@@H](n3ccc(=O)[nH]c3=O)[C@](C)(N)[C@@H]2O1 [Compound 14B]
EC50 [1]: > 10 µM
CC50 at 3 days [2]: > 50 µM

C#C[C@]1(C)[C@@H]2O[P@@](=O)(OCCCCC(=O)OC(C)C)OC[C@H]2O[C@H]1n1ccc(=O)[nH]c1=O [Compound 15A]
EC50 [1]: > 10 µM
CC50 at 3 days [2]: > 50 µM

C#C[C@]1(C)[C@@H]2O[P@](=O)(OCCCCC(=O)OC(C)C)OC[C@H]2O[C@H]1n1ccc(=O)[nH]c1=O [Compound 15B]
EC50 [1]: > 10 µM
CC50 at 3 days [2]: > 50 µM

C#C[C@]1(C)[C@@H]2O[P@@](=O)(OCCCCC(=O)OC3CCCC3)OC[C@H]2O[C@H]1n1ccc(=O)[nH]c1=O [Compound 16A]
EC50 [1]: > 10 µM
CC50 at 3 days [2]: > 50 µM

C#C[C@]1(C)[C@@H]2O[P@](=O)(OCCCCC(=O)OC3CCCC3)OC[C@H]2O[C@H]1n1ccc(=O)[nH]c1=O [Compound 16B]
EC50 [1]: 1 to 10 µM
CC50 at 3 days [2]: > 50 µM

C[C@@]1(N)[C@@H]2O[P@@](=O)(OCCCCC(=O)OC3CCCC3)OC[C@H]2O[C@H]1n1ccc(=O)[nH]c1=O [Compound 17A]
EC50 [1]: > 10 µM
CC50 at 3 days [2]: > 50 µM

C[C@@]1(N)[C@@H]2O[P@](=O)(OCCCCC(=O)OC3CCCC3)OC[C@H]2O[C@H]1n1ccc(=O)[nH]c1=O [Compound 17B]
EC50 [1]: 1 to 10 µM
CC50 at 3 days [2]: > 50 µM

CC(C)OC(=O)CCCCO[P@@]1(=O)OC[C@H]2O[C@@H](n3ccc(=O)[nH]c3=O)[C@](C)(Cl)[C@@H]2O1 [Compound 18A]
EC50 [1]: 1 to 10 µM
CC50 at 3 days [2]: > 50 µM

CC(C)OC(=O)CCCCO[P@]1(=O)OC[C@H]2O[C@@H](n3ccc(=O)[nH]c3=O)[C@](C)(Cl)[C@@H]2O1 [Compound 18B]
EC50 [1]: 1 to 10 µM
CC50 at 3 days [2]: > 50 µM

C[C@@]1(Cl)[C@@H]2O[P@@](=O)(OCCCCC(=O)OC3CCCC3)OC[C@H]2O[C@H]1n1ccc(=O)[nH]c1=O [Compound 19A]
EC50 [1]: 1 to 10 µM
CC50 at 3 days [2]: > 50 µM

C[C@@]1(Cl)[C@@H]2O[P@](=O)(OCCCCC(=O)OC3CCCC3)OC[C@H]2O[C@H]1n1ccc(=O)[nH]c1=O [Compound 19B]
EC50 [1]: 0.25 to 1 µM
CC50 at 3 days [2]: > 50 µM

C#C[C@]1(C)[C@@H]2O[P@@](=O)(OCCCCC(=O)OCC)OC[C@H]2O[C@H]1n1ccc(=O)[nH]c1=O [Compound 20A]
EC50 [1]: > 10 µM
CC50 at 3 days [2]: > 50 µM

C#C[C@]1(C)[C@@H]2O[P@](=O)(OCCCCC(=O)OCC)OC[C@H]2O[C@H]1n1ccc(=O)[nH]c1=O [Compound 20B]
EC50 [1]: > 10 µM
CC50 at 3 days [2]: > 50 µM

C#C[C@]1(C)[C@@H]2O[P@@](=O)(OCCCCC(=O)OC)OC[C@H]2O[C@H]1n1ccc(=O)[nH]c1=O [Compound 22A]
EC50 [1]: > 10 µM
CC50 at 3 days [2]: > 50 µM

C#C[C@]1(C)[C@@H]2O[P@](=O)(OCCCCC(=O)OC)OC[C@H]2O[C@H]1n1ccc(=O)[nH]c1=O [Compound 22B]
EC50 [1]: > 10 µM
CC50 at 3 days [2]: > 50 µM

COC(=O)CCCCO[P@@]1(=O)OC[C@H]2O[C@@H](n3ccc(=O)[nH]c3=O)[C@](C)(Cl)[C@@H]2O1 [Compound 23A]
EC50 [1]: 0.25 to 1 µM
CC50 at 3 days [2]: > 50 µM

COC(=O)CCCCO[P@]1(=O)OC[C@H]2O[C@@H](n3ccc(=O)[nH]c3=O)[C@](C)(Cl)[C@@H]2O1 [Compound 23B]
EC50 [1]: 1 to 10 µM
CC50 at 3 days [2]: > 50 µM

C#C[C@@]1(O)[C@@H]2O[P@@](=O)(OCCCCC(=O)OC3CCCC3)OC[C@H]2O[C@H]1n1ccc(=O)[nH]c1=O [Compound 24A]
EC50 [1]: 1 to 10 µM
CC50 at 3 days [2]: > 50 µM

C#C[C@@]1(O)[C@@H]2O[P@](=O)(OCCCCC(=O)OC3CCCC3)OC[C@H]2O[C@H]1n1ccc(=O)[nH]c1=O [Compound 24B]
EC50 [1]: ≤ 0.25 µM
CC50 at 3 days [2]: > 50 µM

CC(C)OC(=O)CCCCCO[P@@]1(=O)OC[C@H]2O[C@@H](n3ccc(=O)[nH]c3=O)[C@](C)(N)[C@@H]2O1 [Compound 25A]
EC50 [1]: > 10 µM

CC(C)OC(=O)CCCCCO[P@]1(=O)OC[C@H]2O[C@@H](n3ccc(=O)[nH]c3=O)[C@](C)(N)[C@@H]2O1 [Compound 25B]
EC50 [1]: > 10 µM

C#C[C@]1(C)[C@@H]2O[P@@](=O)(OCCC(=O)OC(C)C)OC[C@H]2O[C@H]1n1ccc(=O)[nH]c1=O [Compound 26A]
EC50 [1]: > 10 µM
CC50 at 3 days [2]: > 50 µM

CC(C)OC(=O)CCO[P@@]1(=O)OC[C@H]2O[C@@H](n3ccc(=O)[nH]c3=O)[C@](C)(Cl)[C@@H]2O1 [Compound 27A]
EC50 [1]: 1 to 10 µM

CC(C)OC(=O)CCO[P@]1(=O)OC[C@H]2O[C@@H](n3ccc(=O)[nH]c3=O)[C@](C)(Cl)[C@@H]2O1 [Compound 27B]
EC50 [1]: 1 to 10 µM
